From article PMC8904520, “Characterization of a small-molecule inhibitor targeting NEMO/IKKβ to suppress colorectal cancer growth” (Signal Transduction and Targeted Therapy, 2022)

Columns and labels:
LoVo and RKO cells = assay: Colony formation assay; format: cell-based, human
Experimental: Detached cells (1 × 10^3 per well) were seeded into six-well plates containing 2 mL of growth medium with 10% FBS and cultured for 24 h. Then, the medium was removed and the cells were treated with various concentrations of SHK. After 24 h, the cells were washed with PBS and supplemented with fresh growth medium. The cells were routinely incubated for about two weeks until colonies were large enough to be visualized. Then, the colonies were stained with 0.1% crystal violet and counted.

LoVo cells = assay: Real-time cell growth (xCELLigence) in IKKβ or NEMO depleted or mutant LoVo cells; format: cell-based, human; details: SHK 1 μM
CCD841 CoN cells = assay: CCK-8 cell viability assay, normal colonic epithelial cells; format: cell-based, human; details: 0.5–5 μM, 48 h
Experimental: (§1) Cell viability was determined using the CCK-8 assay. Briefly, 5×10³ cells were seeded into 96-well culture plates, allowed to adhere for overnight, and then changed to fresh medium containing various concentrations of SHK (0, 0.5, 1, 2 and 5 µM) dissolved in DMSO (final concentration, 0.1%). After incubation for 48 h, the CCK-8 reagent was added, and the absorbance was measured at 450 nm using an EnSpire® Multimode Plate Reader (Perkin Elmer, USA). The cell viability in the vehicle control groups was defined as 100%. Each assay was carried out in triplicate.

[1] = tested on: colorectal cancer cells (LoVo, RKO, SW620, HCT15, HCT116); assay: CCK-8 cell viability assay, colorectal cancer cells; format: cell-based, human; details: 48 h
Experimental: as §1

[2] = tested on: NF-κB luciferase activity in LoVo cells; assay: NF-κB dual-luciferase reporter assay; format: cell-based, human; details: 0.5 and 1 µM, 48 h
Experimental: LoVo cells in a 6-well plate were transfected with the pNFκB-luc plasmid (Beyotime), which contains the luciferase coding region downstream of an NFκB-responsive promoter, using Lipofectamine 2000 Reagent (Invitrogen, Grand Island, NY, USA). After transfection, the cells were treated with SHK (0.5 and 1µM) for 48 h. The dual-luciferase reporter assay system (Promega, Madison, WI) was used to measure the changes of luciferase activity in the cell lysates. The firefly luciferase activities were normalized to the corresponding Renilla luciferase activities. All values are shown as means ± SD of triplicate experiments.

[3] = tested on: NO release in LoVo and RKO cells; assay: Nitric oxide production assay (Griess reagent); format: cell-based, human
Experimental: After overnight culture in a 96-well plate (1 × 10^4 cells in 100 μL medium per well), the cells were pre-treated with SHK for 1 hour and lipopolysaccharide for an additional 24 hours. The culture supernatant from each well was collected at the end of the experiment and used to measure NO production. The NO production was determined using a commercial NO assay kit on the basis of the Griess reaction (S0021, Beyotime Institute of Biotechnology, Shanghai, China) according to the manufacturer’s instructions.

MBP-IKKβ (701–745) [4] = molecular target: T1, MBP-IKKβ (701–745) (Homo sapiens, UniProt O14920); assay: MST binding assay to IKKβ
T1 construct: made in house; host or cells: E. coli BL21(DE3)
T1 sequence (O14920 701-745): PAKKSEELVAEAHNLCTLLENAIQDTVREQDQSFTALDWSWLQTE

MBP-IKKβ (701–745) [5] = molecular target: T1, MBP-IKKβ (701–745); assay: SPR affinity assay on immobilized MBP-IKKβ; format: binding
Experimental: The sensor surface was activated with a 7 min injection of a mixture comprising 50 mM N-hydroxysuccinimide (NHS) and 200 mM 1-ethyl-3-(3- dimethylaminopropyl) carbodiimide (EDC). Then, 33 μg/mL of IKKβ was injected to reach the target level of 500 RU and the surface was blocked with 1 M ethanolamine, pH 8.5. A series of concentrations of NEMO or SHK were injected into the flow system and analyzed for 90 or 120 s, followed by dissociation for 90 or 600 s. All binding analyses was performed in phosphate-buffered saline (PBS, pH 7.4) with 0.05% (v/v) Tween-20 at 25 °C. Prior to analysis, double reference subtractions were made to eliminate bulk refractive index changes, injection noise, and data drift. The binding affinity was determined by fitting to a Langmuir 1:1 binding model in the Biacore Evaluation software (GE Healthcare).

[6] = tested on: LoVo/IKKβmut (D738A/W739A/W741A) xenograft; assay: LoVo/IKKβmut xenograft mouse model; format: in vivo, athymic nude mice; parameters: dose or concentration left out as unconfirmed
Experimental: Female athymic nude mice aged 5 weeks were purchased from Beijing Vital River Laboratory Animal Technology Co., Ltd., and kept in the SPF Laboratory Animal Center of Dalian Medical University (Dalian, China). All animals were given free access to sterilized food and water and were habituated for 7 days before the experiments. All procedures were carried out in strict accordance with the recommendations established by the Animal Care and Ethics Committee of Dalian Medical University as well as the guidelines promulgated in the U.S. National Institutes of Health Guide for the Care and Use of Laboratory Animals. LoVo cells (LoVo/wt and LoVo/ mut, 5×10^6 in 100 μL PBS) were injected subcutaneously near the axillary fossa of each nude mouse. Two weeks later, when the formed tumor reached 3-4mm, the animals were divided randomly into three groups with 5 mice in each group. […] The tumors were measured with a caliper once every two days, and the tumor volume was calculated using the formula V = 1/2 (width^2 × length). The body weight of the animals was also recorded. After treatment with SHK for 15 days, all experimental mice were sacrificed and the tumors from each mouse were excised and their weight was measured. […] The stained samples were examined under a Leica DM 4000B fluorescence microscope equipped with a digital camera. […]

[7] = tested on: COX-2, iNOS, IL-6, TNF-α in LoVo and RKO cells; assay: Expression of inflammatory markers by qPCR and western blotting; format: cell-based, human
Experimental: Protein lysates were separated by electrophoresis in a 10% acrylamide sodium dodecyl sulfate-polyacrylamide minigel (SDS-PAGE), electrophoretically transferred to a PVDF membrane, and immunoblotted with specific antibodies. The protein bands were detected by enhanced chemiluminescence. The protein concentrations were determined using a BCA protein assay kit (Beyotime Biotechnology, China). The experiments were carried out at least three times.

LoVo xenograft tumor = LoVo xenograft tumor model; format: in vivo, athymic nude mice; details: mice
Experimental: Female athymic nude mice aged 5 weeks were purchased from Beijing Vital River Laboratory Animal Technology Co., Ltd., and kept in the SPF Laboratory Animal Center of Dalian Medical University (Dalian, China). All animals were given free access to sterilized food and water and were habituated for 7 days before the experiments. All procedures were carried out in strict accordance with the recommendations established by the Animal Care and Ethics Committee of Dalian Medical University as well as the guidelines promulgated in the U.S. National Institutes of Health Guide for the Care and Use of Laboratory Animals. LoVo cells (LoVo/wt and LoVo/ mut, 5×10^6 in 100 μL PBS) were injected subcutaneously near the axillary fossa of each nude mouse. Two weeks later, when the formed tumor reached 3-4mm, the animals were divided randomly into three groups with 5 mice in each group. […] The tumors were measured with a caliper once every two days, and the tumor volume was calculated using the formula V = 1/2 (width^2 × length). The body weight of the animals was also recorded. After treatment with SHK for 15 days, all experimental mice were sacrificed and the tumors from each mouse were excised and their weight was measured. To determine the expression of the indicated proteins, the tumor tissues were fixed with 10% neutral formalin and embedded in paraffin. Then, 4 μm sections were stained with hematoxylin and eosin, in combination with specific antibodies (iNOS (1:100), COX-2 (1:50), IL-6 (1:100)), and TNFα (1:200)). The stained samples were examined under a Leica DM 4000B fluorescence microscope equipped with a digital camera. The other parts of the tumors were used to prepare tumor tissue lysates for western blot analysis.

## CC(C)=CC[C@@H](O)C1=CC(=O)c2c(O)ccc(O)c2C1=O [SHK, Shikonin]
LoVo and RKO cells
  colony formation: colony formation suppression
LoVo cells; LoVo cells rescued with L737A, M94A, Q98A or R101A
  inhibitory effect on growth of single point mutation cells compared with wild-type: significantly weakened
LoVo cells; LoVo cells with shRNA
  inhibitory effect on growth of IKKβ or NEMO depletion cells: significantly weakened
CCD841 CoN cells
  growth inhibitory effect in normal colonic epithelial cells: absent
[1]; Homo sapiens, CCK-8, range over cell lines, read-out: IC50 for inhibition of proliferation in colorectal cancer cells
  IC50: 0.6 to 2.5 µM
[1]; LoVo, RKO, SW620, HCT15, HCT116
  growth inhibition of cancer cell lines: dose-dependent growth inhibition
[2]
  NF-κB luciferase activity: significant inhibition
[3]
  release of NO: dramatically decreased
MBP-IKKβ (701–745) [4]
  Kd: 15.2 ± 4 µM
MBP-IKKβ (701–745) [5]; KD for MBP-IKKβ (701–745), SPR
  Kd: 8.19 ± 1.92 µM
MBP-IKKβ (701–745) [5]; approximate summary value in discussion (SPR and MST), read-out: KD for either IKKβ or NEMO alone
  Kd: ~10 µM
[6]
  inhibitory effect on tumor growth in LoVo/IKKβ mutant group compared with LoVo/wt: significantly weakened
[7]
  expression of inflammatory markers COX-2, iNOS, IL-6, TNF-α: suppressed the expression of inflammatory markers
LoVo xenograft tumor; 2.5 and 5 mg/kg daily
  tumor volume: dramatically decreased
  tumor weight: dramatically decreased
LoVo xenograft tumor; 2.5 and 5 mg/kg
  side effects (body weight): slight side effects
